Measured values taken from US20240360177A1, “PEPTIDES WITH ANTIMICROBIAL ACTIVITIES” (priority 2021, published 2024).
≈ marks a conversion by molar mass, not a printed value. Non-standard residues stand in square brackets, D forms with d. Residues, ends and D or L forms follow the SMILES beside them. αMeL = CC(C)C[C@](C)(N)C(=O)O; NBuGly = CCCCNCC(=O)O; AEA = NCCOCC(=O)O

Experiments:
Details in all cases: 24 h
C. parapsilosis = test system: C. parapsilosis
C. auris = test system: C. auris
C. dubliniensis = test system: C. dubliniensis
C. tropicalis = test system: C. tropicalis
C. krusei = test system: C. krusei
C. albicans = test system: C. albicans
C. glabrata = test system: C. glabrata

Compound | MIC C. parapsilosis (C. parapsilosis) [µg/mL] | MIC C. auris (C. auris) [µg/mL] | MIC C. dubliniensis (C. dubliniensis) [µg/mL] | MIC C. tropicalis (C. tropicalis) [µg/mL] | MIC C. krusei (C. krusei) [µg/mL] | MIC C. albicans (C. albicans) [µg/mL] | MIC C. glabrata (C. glabrata) [µg/mL]
CCCCN(CC(=O)N[C@H](CCCNC(=N)N)C(=O)N[C@@H](CCCNC(=N)N)C(=O)N[C@H](CCCNC(=N)N)C(=O)N[C@@H](CCCNC(=N)N)C(N)=O)C(=O)[C@H](CCCNC(=N)N)NC(=O)[C@@H](CCCNC(=N)N)NC(=O)[C@H](CCCNC(=N)N)NC(=O)[C@@H](CCCNC(=N)N)NC(=O)CN(CCCC)C(=O)[C@@H](CCCNC(=N)N)NC(=O)[C@H](CCCNC(=N)N)NC(=O)[C@@H](CCCNC(=N)N)NC(=O)CN(CCCC)C(=O)[C@@H](CCCNC(=N)N)NC(=O)[C@H](CCCNC(=N)N)NC(=O)[C@H](N)CCCNC(=N)N [SEQ ID NO: 35, rRr-(ButylGly)-rRr-(ButylGly)-rRrR-(ButylGly)-rRrR-NH2] (H-[dR]R[dR][NBuGly][dR]R[dR][NBuGly][dR]R[dR]R[NBuGly][dR]R[dR]R-NH2) | 0.25 (≈ 0.0983 µM) | 0.5 (≈ 0.197 µM) | 0.5 (≈ 0.197 µM) | 0.5 (≈ 0.197 µM) | 0.5 (≈ 0.197 µM) | 0.5 (≈ 0.197 µM) | 0.5 (≈ 0.197 µM)
CC(C)C[C@](C)(NC(=O)[C@H](CCCNC(=N)N)NC(=O)[C@@H](CCCNC(=N)N)NC(=O)[C@H](CCCNC(=N)N)NC(=O)[C@@H](CCCNC(=N)N)NC(=O)[C@](C)(CC(C)C)NC(=O)[C@@H](CCCNC(=N)N)NC(=O)[C@H](CCCNC(=N)N)NC(=O)[C@@H](CCCNC(=N)N)NC(=O)[C@](C)(CC(C)C)NC(=O)[C@@H](CCCNC(=N)N)NC(=O)[C@H](CCCNC(=N)N)NC(=O)[C@H](N)CCCNC(=N)N)C(=O)N[C@H](CCCNC(=N)N)C(=O)N[C@@H](CCCNC(=N)N)C(=O)N[C@H](CCCNC(=N)N)C(=O)N[C@@H](CCCNC(=N)N)C(N)=O [SEQ ID NO: 37, rRr-Leu(Me)-rRr-Leu(Me)-rRrR-Leu(Me)-rRrR-NH2] (H-[dR]R[dR][αMeL][dR]R[dR][αMeL][dR]R[dR]R[αMeL][dR]R[dR]R-NH2) | 0.5 (≈ 0.193 µM) | 1 (≈ 0.387 µM) | 0.5 (≈ 0.193 µM) | 0.5 (≈ 0.193 µM) | 1 (≈ 0.387 µM) | 0.5 (≈ 0.193 µM) | 0.5 (≈ 0.193 µM)
N=C(N)NCCC[C@@H](N)C(=O)N[C@@H](CCCNC(=N)N)C(=O)N[C@H](CCCNC(=N)N)C(=O)NCCNCC(=O)N[C@H](CCCNC(=N)N)C(=O)N[C@@H](CCCNC(=N)N)C(=O)N[C@H](CCCNC(=N)N)C(=O)NCCNCC(=O)N[C@H](CCCNC(=N)N)C(=O)N[C@@H](CCCNC(=N)N)C(=O)N[C@H](CCCNC(=N)N)C(=O)N[C@@H](CCCNC(=N)N)C(=O)NCCNCC(=O)N[C@H](CCCNC(=N)N)C(=O)N[C@@H](CCCNC(=N)N)C(=O)N[C@H](CCCNC(=N)N)C(=O)N[C@@H](CCCNC(=N)N)C(N)=O [SEQ ID NO: 46, rRr-(Aeg)-rRr-(Aeg)-rRrR-(Aeg)-rRrR-NH2] | 0.25 (≈ 0.0998 µM) | 8 (≈ 3.19 µM) | 0.5 (≈ 0.2 µM) | 0.5 (≈ 0.2 µM) | 0.5 (≈ 0.2 µM) | 0.5 (≈ 0.2 µM) | 1 (≈ 0.399 µM)
N=C(N)NCCC[C@@H](N)C(=O)N[C@@H](CCCNC(=N)N)C(=O)N[C@H](CCCNC(=N)N)C(=O)NCCOCC(=O)N[C@H](CCCNC(=N)N)C(=O)N[C@@H](CCCNC(=N)N)C(=O)N[C@H](CCCNC(=N)N)C(=O)NCCOCC(=O)N[C@H](CCCNC(=N)N)C(=O)N[C@@H](CCCNC(=N)N)C(=O)N[C@H](CCCNC(=N)N)C(=O)N[C@@H](CCCNC(=N)N)C(=O)NCCOCC(=O)N[C@H](CCCNC(=N)N)C(=O)N[C@@H](CCCNC(=N)N)C(=O)N[C@H](CCCNC(=N)N)C(=O)N[C@@H](CCCNC(=N)N)C(N)=O [SEQ ID NO: 52, rRr-(Aea)-rRr-(Aea)-rRrR-(Aea)-rRrR-NH2] (H-[dR]R[dR][AEA][dR]R[dR][AEA][dR]R[dR]R[AEA][dR]R[dR]R-NH2) | 0.25 (≈ 0.0997 µM) | 1 (≈ 0.399 µM) | 0.5 (≈ 0.199 µM) | 0.5 (≈ 0.199 µM) | 0.5 (≈ 0.199 µM) | 0.5 (≈ 0.199 µM) | 0.5 (≈ 0.199 µM)
N=C(N)NCCC[C@@H](N)C(=O)N[C@@H](CCCNC(=N)N)C(=O)N[C@H](CCCNC(=N)N)C(=O)N1CCC[C@H]1C(=O)N[C@H](CCCNC(=N)N)C(=O)N[C@@H](CCCNC(=N)N)C(=O)N[C@H](CCCNC(=N)N)C(=O)N1CCC[C@H]1C(=O)N[C@H](CCCNC(=N)N)C(=O)N[C@@H](CCCNC(=N)N)C(=O)N[C@H](CCCNC(=N)N)C(=O)N[C@@H](CCCNC(=N)N)C(=O)N1CCC[C@H]1C(=O)N[C@H](CCCNC(=N)N)C(=O)N[C@@H](CCCNC(=N)N)C(=O)N[C@H](CCCNC(=N)N)C(=O)N[C@@H](CCCNC(=N)N)C(=O)O [SEQ ID NO: 54, rRr-P-rRr-P-rRrR-P-rRrR] (H-[dR]R[dR]P[dR]R[dR]P[dR]R[dR]RP[dR]R[dR]R-OH) | 0.25 (≈ 0.1 µM) | 2 (≈ 0.801 µM) | 0.5 (≈ 0.2 µM) | 0.25 (≈ 0.1 µM) | 0.5 (≈ 0.2 µM) | 0.25 (≈ 0.1 µM) | 0.5 (≈ 0.2 µM)
